According to PubChem BioAssay AID330 (DTP/NCI, 2004):
Several values for one entry are separate records, joined by “and”; a condition that tells them apart may be missing. Equal values may be shown once. Toxic doses and inconclusive results are not listed. The calls were made as follows: active = survival T/C of 150% or more; inactive = T/C below 125% in these data.

Test system: P388 leukemia ip, CD2F1 mice, survival T/C
Test: NCI In Vivo Anticancer Drug Screen. Data for tumor model P388 Leukemia (intraperitoneal) in CD2F1 (CDF1) mice
Settings: endpoint: median survival time, higher = longer survival
In short: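 Mice carrying the transplanted tumor received test compound or vehicle. Survival was recorded in each group, and the value is the treated-group measurement divided by that of the vehicle-treated control group.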

Measured: T/C

N[C@@H](Cc1ccc(N(CCCl)CCCl)cc1)C(=O)O
inactive: dose: 0.25 mg/kg/injection, schedule: Q01DX009 (ip), vehicle: suspension in saline 117 % of control | dose: 0.5 mg/kg/injection, schedule: Q01DX009 (ip), vehicle: suspension in saline 123 % of control | dose: 1.25 mg/kg/injection, schedule: Q04DX003 (iv), vehicle: saline 124 % of control | dose: 1.5 mg/kg/injection, schedule: Q01DX009 (ip), vehicle: Klucel (hydroxypropylcellulose) (HPC) 101 % of control | dose: 3.0 mg/kg/injection, schedule: Q04DX003 (ip), vehicle: Klucel (hydroxypropylcellulose) (HPC) 119 % of control | dose: 6.0 mg/kg/injection, schedule: Q04DX003 (ip), vehicle: Klucel (hydroxypropylcellulose) (HPC) 117 % of control | dose: 8.0 mg/kg/injection, schedule: Q01DX009 (ip), vehicle: Klucel (hydroxypropylcellulose) (HPC) 109 % of control | dose: 8.0 mg/kg/injection, schedule: Q01DX009 (ip), vehicle: saline 99 % of control and 100 % of control | dose: 8.0 mg/kg/injection, schedule: Q01DX009 (ip), vehicle: suspension in saline 104 % of control and 108 % of control | dose: 10.0 mg/kg/injection, schedule: Q04DX003 (iv), vehicle: saline 100 % of control | dose: 15.0 mg/kg/injection, schedule: Q04DX002 (ip), vehicle: saline 101 % of control and 109 % of control | dose: 15.0 mg/kg/injection, schedule: Q04DX003 (ip), vehicle: saline 108 % of control | dose: 16.0 mg/kg/injection, schedule: Q04DX003 (ip), vehicle: water 115 % of control | dose: 18.9 mg/kg/injection, schedule: Q04DX003 (ip), vehicle: saline 107 % of control | dose: 24.0 mg/kg/injection, schedule: Q04DX003 (ip), vehicle: saline 107 % of control
active: dose: 0.25 mg/kg/injection, schedule: Q01DX009 (ip), vehicle: saline 152 % of control | dose: 0.25 mg/kg/injection, schedule: Q03HX008 (ip), vehicle: saline 165 % of control | dose: 0.38 mg/kg/injection, schedule: Q01DX005 (ip), vehicle: saline 154 % of control | dose: 0.5 mg/kg/injection, schedule: Q01DX005 (ip), vehicle: saline 153 % of control and 189 % of control | dose: 0.5 mg/kg/injection, schedule: Q01DX009 (ip), vehicle: saline 163 % of control and 170 % of control | dose: 0.5 mg/kg/injection, schedule: Q03HX008 (ip), vehicle: saline 190 % of control | dose: 0.5 mg/kg/injection, schedule: Q04DX003 (ip), vehicle: water 150 % of control | dose: 0.54 mg/kg/injection, schedule: Q01DX009 (ip), vehicle: saline 175 % of control | dose: 0.75 mg/kg/injection, schedule: Q01DX005 (ip), vehicle: saline 172 % of control | dose: 0.75 mg/kg/injection, schedule: Q04DX003 (ip), vehicle: saline 150 % of control | dose: 0.9 mg/kg/injection, schedule: Q01DX009 (ip), vehicle: saline 193 % of control | dose: 1.0 mg/kg/injection, schedule: Q01DX005 (ip), vehicle: water 167 % of control | dose: 1.0 mg/kg/injection, schedule: Q01DX009 (ip), vehicle: Klucel (hydroxypropylcellulose) (HPC) 222 % of control | dose: 1.0 mg/kg/injection, schedule: Q01DX009 (ip), vehicle: saline 193 % of control and 209 % of control and 227 % of control | dose: 1.0 mg/kg/injection, schedule: Q01DX009 (ip), vehicle: suspension in saline 163 % of control | dose: 1.0 mg/kg/injection, schedule: Q04DX003 (ip), vehicle: saline 176 % of control | dose: 1.0 mg/kg/injection, schedule: Q04DX003 (ip), vehicle: water 162 % of control | dose: 1.25 mg/kg/injection, schedule: Q04DX003 (ip), vehicle: saline 176 % of control | dose: 1.25 mg/kg/injection, schedule: Q04DX003 (ip), vehicle: water 158 % of control and 200 % of control | dose: 1.5 mg/kg/injection, schedule: Q01DX005 (ip), vehicle: saline 203 % of control | dose: 1.5 mg/kg/injection, schedule: Q01DX009 (ip), vehicle: saline 227 % of control | dose: 1.5 mg/kg/injection, schedule: Q04DX003 (ip), vehicle: Klucel (hydroxypropylcellulose) (HPC) 225 % of control | dose: 1.5 mg/kg/injection, schedule: Q04DX003 (ip), vehicle: saline 174 % of control | dose: 1.62 mg/kg/injection, schedule: Q04DX003 (ip), vehicle: saline 180 % of control | dose: 1.62 mg/kg/injection, schedule: Q04DX003 (ip), vehicle: water 191 % of control | dose: 1.7 mg/kg/injection, schedule: Q04DX003 (ip), vehicle: saline 174 % of control | dose: 1.94 mg/kg/injection, schedule: Q04DX002 (ip), vehicle: saline 190 % of control and 192 % of control and 206 % of control | dose: 1.94 mg/kg/injection, schedule: Q04DX003 (ip), vehicle: saline 186 % of control | dose: 2.0 mg/kg/injection, schedule: Q01DX009 (ip), vehicle: saline 236 % of control and 254 % of control | dose: 2.0 mg/kg/injection, schedule: Q01DX009 (ip), vehicle: suspension in saline 174 % of control and 221 % of control | dose: 2.0 mg/kg/injection, schedule: Q04DX003 (ip), vehicle: saline 196 % of control and 199 % of control and 200 % of control | dose: 2.0 mg/kg/injection, schedule: Q04DX003 (ip), vehicle: water 189 % of control | dose: 2.2 mg/kg/injection, schedule: Q01DX005 (ip), vehicle: saline 165 % of control and 203 % of control | dose: 2.5 mg/kg/injection, schedule: Q01DX001 (ip), vehicle: Klucel (hydroxypropylcellulose) (HPC) 207 % of control | dose: 2.7 mg/kg/injection, schedule: Q04DX003 (ip), vehicle: saline 194 % of control and 250 % of control | dose: 2.7 mg/kg/injection, schedule: Q04DX003 (ip), vehicle: water 233 % of control | dose: 3.0 mg/kg/injection, schedule: Q04DX003 (ip), vehicle: saline 196 % of control | dose: 3.24 mg/kg/injection, schedule: Q04DX002 (ip), vehicle: saline 202 % of control and 213 % of control and 243 % of control | dose: 3.24 mg/kg/injection, schedule: Q04DX003 (ip), vehicle: saline 220 % of control and 227 % of control | dose: 3.6 mg/kg/injection, schedule: Q01DX005 (ip), vehicle: saline 165 % of control and 233 % of control | dose: 3.7 mg/kg/injection, schedule: Q04DX003 (ip), vehicle: saline 220 % of control | dose: 3.75 mg/kg/injection, schedule: Q04DX003 (ip), vehicle: distilled water + Tween-80 215 % of control | dose: 4.0 mg/kg/injection, schedule: Q01DX001 (ip), vehicle: suspension in saline 183 % of control | dose: 4.0 mg/kg/injection, schedule: Q01DX009 (ip), vehicle: Klucel (hydroxypropylcellulose) (HPC) 161 % of control | dose: 4.0 mg/kg/injection, schedule: Q01DX009 (ip), vehicle: saline 166 % of control | dose: 4.0 mg/kg/injection, schedule: Q01DX009 (ip), vehicle: suspension in saline 169 % of control and 238 % of control | dose: 4.0 mg/kg/injection, schedule: Q04DX003 (ip), vehicle: saline 199 % of control and 211 % of control and 240 % of control | dose: 4.0 mg/kg/injection, schedule: Q04DX003 (ip), vehicle: water 225 % of control | dose: 4.5 mg/kg/injection, schedule: Q04DX003 (ip), vehicle: saline 240 % of control | dose: 5.0 mg/kg/injection, schedule: Q01DX001 (ip), vehicle: saline 208 % of control | dose: 5.0 mg/kg/injection, schedule: Q04DX003 (iv), vehicle: saline 194 % of control | dose: 5.4 mg/kg/injection, schedule: Q04DX002 (ip), vehicle: saline 254 % of control | dose: 6.0 mg/kg/injection, schedule: Q01DX005 (ip), vehicle: saline 226 % of control | dose: 6.0 mg/kg/injection, schedule: Q04DX003 (ip), vehicle: saline 218 % of control | dose: 6.7 mg/kg/injection, schedule: Q01DX001 (ip), vehicle: saline 185 % of control | dose: 7.3 mg/kg/injection, schedule: Q04DX003 (ip), vehicle: saline 239 % of control | dose: 10.0 mg/kg/injection, schedule: Q01DX001 (iv), vehicle: saline 185 % of control | dose: 12.5 mg/kg/injection, schedule: Q04DX003 (ip), vehicle: saline 152 % of control | dose: 12.6 mg/kg/injection, schedule: Q04DX003 (ip), vehicle: saline 239 % of control | dose: 17.5 mg/kg/injection, schedule: Q01DX001 (ip), vehicle: saline 243 % of control

CNC(=O)N(C)C(C)=O
inactive: dose: 100.0 mg/kg/injection, schedule: Q04DX003 (ip), vehicle: saline 123 % of control and 94 % of control | dose: 200.0 mg/kg/injection, schedule: Q04DX003 (ip), vehicle: saline 99 % of control and 124 % of control

CC(=O)CC(=O)c1ccccc1.CC(=O)CC(=O)c1ccccc1.[Ni]
inactive: dose: 3.0 mg/kg/injection, schedule: Q01DX009 (ip), vehicle: saline with Tween-80 106 % of control | dose: 6.0 mg/kg/injection, schedule: Q01DX009 (ip), vehicle: saline with Tween-80 98 % of control | dose: 12.0 mg/kg/injection, schedule: Q01DX009 (ip), vehicle: saline with Tween-80 99 % of control | dose: 12.5 mg/kg/injection, schedule: Q01DX009 (ip), vehicle: saline with Tween-80 91 % of control | dose: 24.0 mg/kg/injection, schedule: Q01DX009 (ip), vehicle: saline with Tween-80 99 % of control
